Data taken from US7563893B2, “3-Phenyl-cinnoline analogue and antitumor agent using the same” (Nippon Kayaku Kabushiki Kaisha, priority 2002, dated 2009).
In brackets after ≈: the same amount, converted by molar mass.

What was measured:
Mammary tumor cell MCF-7 = experiment: Antitumor effect in vitro, proliferation inhibition (methylene blue staining, absorption at 660 nm); assay type: cell-based; conditions: MCF-7, 2000 cells, incubated 3 days with compound; for IC50: Homo sapiens, MCF7, 72 h, read-out: IC50 (50% cell proliferation inhibitory concentration), MCF-7
Procedure: (§1) Antitumor Effect in vitro Using Mammary Tumor Cell MCF-7 and MDA-MB-453
(§2) Each MCF-7, 2000 cells, and MDA-MB-453, 4000 cells, was inoculated using 10% serum added RPMI 1640 medium (Asahi Technoclass Inc.) into a 96 well plate. After incubating these cells at 37° C., under atmosphere of 5% CO2/95% air for 24 hours, each of the compounds of Examples 1, 2, 6, 9-13, 20, 24, 26, 27, 65, 66, 70, 71, 72 and 73 was added and incubated for further 3 days. Cells were stained with a 0.05% methylene blue solution and measured using a microplate reader (Benchmark Plus, Bio-Rad Laboratories) by absorption at 660 nm. Proliferation inhibition rate was calculated by the following equation, and 50% cell proliferation inhibitory concentrations of the compounds of Examples 1, 2, 6, 9-13, 20, 24, 26, 27, 65, 66, 70, 71, 72 and 73 were shown in Table 2. Proliferation inhibition rate=(1−absorbance with drug addition÷absorbance in control)×100

[1] = system: Mammary tumor cell MDA-MB-453; experiment: as above; assay type: cell-based; conditions: MDA-MB-453, 4000 cells, incubated 3 days with compound; for IC50: Homo sapiens, 72 h, read-out: IC50 (50% cell proliferation inhibitory concentration), MDA-MB-453
Procedure: as §1, §2

[2] = system: Mammary tumor cells ZR-75-1; experiment: Antitumor effect in vivo, subcutaneous tumor in nude mice; conditions: day 15 after initiating administration; oral 500 mg/kg once a day for 14 days; ZR-75-1 in female nude mice
Procedure: Antitumor Effect in vivo Using Mammary Tumor Cell ZR-75-1
Mammary tumor cells ZR-75-1 were inoculated in dorsal subcutaneous region of female nude mice. The compound of example 66 and example 53 was administered orally at dose level of 500 mg/kg, once a day, for 14 days consecutively from the point of initiating logarithmic growth of tumor cells. Conjugate axis and transverse axis of tumor were measured in the time dependent manner, and tumor volume was calculated by the following equation. Relative tumor volume, wherein tumor volume at the time of initiating administration was set as 1, was calculated. Effectiveness was judged by value (T/C) wherein tumor volume in the treated group is divided by tumor volume in the control group. tumor volume=conjugate axis×conjugate axis×transverse axis/2

[3] = system: mammary tumor cells, T-47D; experiment: Antitumor effect in vitro, proliferation inhibition, same condition as Test Example 1; assay type: cell-based; conditions: Homo sapiens, T47D, 4000 cells
Procedure: as §2
Further, a test was conducted by using 4000 mammary tumor cells, T-47D, by adding a compound of example 65 or 66 under the same condition hereinabove.

Row | Compound | IC50 (Mammary tumor cell MCF-7) [µg/mL] | IC50 [1] [µg/mL] | also measured
1 | CC(C)[C@H](N)C(=O)O[C@@H]1C[C@H](C)Cc2nnc(-c3cccc(C(F)(F)F)c3)cc21.Cl.Cl |  |  | melting point: 162 to 165 °C
2 | CC(C)[C@H](N)C(=O)O[C@H]1C[C@H](C)Cc2nnc(-c3cccc(C(F)(F)F)c3)cc21.Cl.Cl |  |  | melting point: 186 to 189 °C
3 | CC(C)[C@H](N)C(=O)O[C@@H]1C[C@@H](C)Cc2nnc(-c3cccc(C(F)(F)F)c3)cc21.Cl.Cl |  |  | melting point: 181 to 185 °C
4 | 7-benzyl-3-(3-trifluoromethylphenyl)-7,8-dihydro-6H-pyrido[3,4-c]-pyridazin-3-one [Example 26] |  |  | IC50 (50% cell proliferation inhibitory concentration), MCF-7 (Mammary tumor cell MCF-7): 0.3610 µg/mL; IC50 (50% cell proliferation inhibitory concentration), MDA-MB-453 [1]: 8.9300 µg/mL
5 | CC1Cc2nnc(-c3cccc(C(F)(F)F)c3)cc2C(O)C1 (racemic) [Example 6, 7-methyl-3-(3-trifluoromethylphenyl)-5,6,7,8-tetrahydrocinnolin-5-ol] | 0.0499 (≈ 0.162 µM) | 1.47 (≈ 4.77 µM) | 
6 | O=C1CC(c2ccccc2)Cc2nnc(-c3cccc(C(F)(F)F)c3)cc21 (stereo not drawn) [Example 1, 7-phenyl-3-(3-trifluoro-methylphenyl)-7,8-dihydro-6H-cinnolin-5-one] |  |  | IC50 (50% cell proliferation inhibitory concentration), MCF-7 (Mammary tumor cell MCF-7): 0.0388 µg/mL (≈ 0.105 µM); IC50 (50% cell proliferation inhibitory concentration), MDA-MB-453 [1]: 0.0395 µg/mL (≈ 0.107 µM)
7 | CCOC(=O)C1CC(=O)c2cc(-c3cccc(C(F)(F)F)c3)nnc2C1 (stereo not drawn) [Example 2, ethyl 5-oxo-3-(3-trifluoro-methylphenyl)-7,8-dihydro-6H-cinnoline-7-carboxylate] |  |  | IC50 (50% cell proliferation inhibitory concentration), MCF-7 (Mammary tumor cell MCF-7): 1.9600 µg/mL (≈ 5.38 µM); IC50 (50% cell proliferation inhibitory concentration), MDA-MB-453 [1]: 1.5700 µg/mL (≈ 4.31 µM)
8 | CC1Cc2nnc(-c3cccc(C(F)(F)F)c3)cc2C(O)C1 (stereo not drawn) [Example 9, syn-(−)-7-methyl-3-(3-trifluoromethylphenyl)-5,6,7,8-tetrahydrocinnolin-5-ol] |  |  | IC50 (50% cell proliferation inhibitory concentration), MCF-7 (Mammary tumor cell MCF-7): 0.0772 µg/mL (≈ 0.25 µM); IC50 (50% cell proliferation inhibitory concentration), MDA-MB-453 [1]: 0.3390 µg/mL (≈ 1.1 µM)
9 | CC1Cc2nnc(-c3cccc(C(F)(F)F)c3)cc2C(O)C1 (stereo not drawn) [Example 10, syn-(+)-7-methyl-3-(3-trifluoromethylphenyl)-5,6,7,8-tetrahydrocinnolin-5-ol] |  |  | IC50 (50% cell proliferation inhibitory concentration), MCF-7 (Mammary tumor cell MCF-7): 0.0982 µg/mL (≈ 0.319 µM); IC50 (50% cell proliferation inhibitory concentration), MDA-MB-453 [1]: 1.5400 µg/mL (≈ 5 µM)
10 | CC(=O)OC1CC(C)Cc2nnc(-c3cccc(C(F)(F)F)c3)cc21 (stereo not drawn) [Example 11, 5-acetyloxy-7-methyl-3-(3-trifluoromethylphenyl)-5,6,7,8-tetrahydrocinnoline] | 0.0455 (≈ 0.13 µM) | 0.848 (≈ 2.42 µM) | 
11 | O=C1CCCc2c1cc(-c1cccc(C(F)(F)F)c1)n[n+]2[O-] [Example 13, 5-oxo-1-oxy-3-(3-trifluoromethylphenyl)-7,8-dihydro-6H-cinnoline] |  |  | IC50 (50% cell proliferation inhibitory concentration), MCF-7 (Mammary tumor cell MCF-7): 0.0671 µg/mL (≈ 0.218 µM); IC50 (50% cell proliferation inhibitory concentration), MDA-MB-453 [1]: 0.9510 µg/mL (≈ 3.09 µM)
12 | CC1Cc2nnc(-c3cccc(C(F)(F)F)c3)cc2C(OC(=O)[C@@H](N)C(C)C)C1.Cl.Cl (stereo partly drawn) [Example 53, 5-(L-valyloxy)-7-methyl-3-(3-trifluoromethylphenyl)-5,6,7,8-tetrahydrocinnoline dihydrochloride] |  |  | T/C value (tumor volume in treated group divided by control group) [2]: 34.0%; melting point: 201 to 203 °C

More lines, main results first:

Row | IC50 (Mammary tumor cell MCF-7) [µg/mL] | IC50 [1] [µg/mL] | Compound | also measured
13 | 1.41 (≈ 4.96 µM) | 9.35 (≈ 33 µM) | CC1CC(=O)c2cc(-c3cccc([N+](=O)[O-])c3)nnc2C1 (stereo not drawn) [Example 20, 7-methyl-3-(3-nitrophenyl)-7,8-dihydro-6H-cinnolin-5-one] | 
14 | 3.57 (≈ 13.9 µM) | 4.95 (≈ 19.3 µM) | CC1CC(=O)c2cc(-c3cccc(F)c3)nnc2C1 (stereo not drawn) [Example 24, 3-(3-fluorophenyl)-7-methyl-7,8-dihydro-6H-cinnolin-5-one] | 
15 | 0.271 (≈ 0.769 µM) | 4.72 (≈ 13.4 µM) | CC(C)(O)C1Cc2nnc(-c3cccc(C(F)(F)F)c3)cc2C(O)C1 (stereo not drawn) [Example 27, 7-(2-hydroxy-2-propyl)-3-(3-trifluoromethylphenyl)-5,6,7,8-tetrahydrocinnolin-5-ol] | 
16 | 0.1 (≈ 0.324 µM) | 1.64 (≈ 5.32 µM) | CC1CC(=O)C2=C(C1)NN=C(c1cccc(C(F)(F)F)c1)C2 (stereo not drawn) [Example 65, 7-methyl-3-(3-trifluoromethylphenyl)-4,6,7,8-tetrahydro-1H-cinnolin-5-one] | IC50 [3]: 0.67 µg/mL (≈ 2.17 µM)
17 | 0.05 (≈ 0.163 µM) | 1.26 (≈ 4.11 µM) | CC1CC(=O)c2cc(-c3cccc(C(F)(F)F)c3)nnc2C1 (stereo not drawn) [Example 66, 7-methyl-3-(3-trifluoromethylphenyl)-7,8-dihydro-6H-cinnolin-5-one] | IC50 [3]: 0.28 µg/mL (≈ 0.914 µM); T/C value (tumor volume in treated group divided by control group) [2]: 30.3%
18 | 0.181 (≈ 0.595 µM) | 0.551 (≈ 1.81 µM) | Cc1cc(O)c2cc(-c3cccc(C(F)(F)F)c3)nnc2c1 [Example 70, 7-methyl-3-(3-trifluoromethylphenyl)cinnolin-5-ol] | 
19 | 0.158 (≈ 0.496 µM) | 3.36 (≈ 10.6 µM) | COc1cc(C)cc2nnc(-c3cccc(C(F)(F)F)c3)cc12 [Example 71, 5-methoxy-7-methyl-3-(3-trifluoromethylphenyl)cinnoline] | 
20 | 0.138 (≈ 0.398 µM) | 0.42 (≈ 1.21 µM) | CC(=O)Oc1cc(C)cc2nnc(-c3cccc(C(F)(F)F)c3)cc12 [Example 72, 5-acetyloxy-7-methyl-3-(3-trifluoromethylphenyl)cinnoline] | 
21 | 0.399 (≈ 1.01 µM) | 2.6 (≈ 6.59 µM) | Cc1cc(OCc2ccccc2)c2cc(-c3cccc(C(F)(F)F)c3)nnc2c1 [Example 73, 5-benzyloxy-7-methyl-3-(3-trifluoromethylphenyl)cinnoline] | 
